# Measurements from the supplement of paper PMC10307832.
# Tests used:
# Assay in all cases: relative viability (nuclei count vs DMSO), 5 days (fraction); higher = more cells survive
# Alpelisib + Decitabine = compound: Cc1nc(NC(=O)N2CCC[C@H]2C(N)=O)sc1-c1ccnc(C(C)(C)C(F)(F)F)c1 [Alpelisib] + Nc1ncn([C@H]2C[C@H](O)[C@@H](CO)O2)c(=O)n1 [Decitabine] (partner 2 µM)
# How it was run: (§1)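 Medians of duplicate plates are given as relative viability. That measure is the nuclei count in treated wells divided by the count in vehicle wells. Counts were taken on 4× images of lung cancer cell lines in 1536-well plates, 5 days after pin-tool dosing the day after seeding with one drug alone or a fixed anchor-drug dose plus five library-drug doses (not always all listed) in √10 steps.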
# Alpelisib + Linsitinib = compound: Cc1nc(NC(=O)N2CCC[C@H]2C(N)=O)sc1-c1ccnc(C(C)(C)C(F)(F)F)c1 [Alpelisib] + C[C@]1(O)C[C@@H](c2nc(-c3ccc4ccc(-c5ccccc5)nc4c3)c3c(N)nccn32)C1 [Linsitinib] (partner 1 µM)
# How it was run: as §1
# OSI-027 + Bortezomib = compound: COc1cccc2cc(-c3nc([C@H]4CC[C@H](C(=O)O)CC4)n4ncnc(N)c34)[nH]c12 [OSI-027] + CC(C)C[C@H](NC(=O)[C@H](Cc1ccccc1)NC(=O)c1cnccn1)B(O)O [Bortezomib] (partner 0.002 µM)
# How it was run: as §1
# Alpelisib + Palbociclib = compound: Cc1nc(NC(=O)N2CCC[C@H]2C(N)=O)sc1-c1ccnc(C(C)(C)C(F)(F)F)c1 [Alpelisib] + CC(=O)c1c(C)c2cnc(Nc3ccc(N4CCNCC4)cn3)nc2n(C2CCCC2)c1=O [Palbociclib] (partner 0.5 µM)
# How it was run: as §1
Cell Line,relative viability (Alpelisib + Decitabine; first compound 0.04 µM),relative viability (Alpelisib + Decitabine; first compound 0.4 µM),relative viability (Alpelisib + Decitabine; first compound 1.265 µM),relative viability (Alpelisib + Decitabine; first compound 4 µM),relative viability (Alpelisib + Linsitinib; first compound 0.04 µM),relative viability (Alpelisib + Linsitinib; first compound 0.1265 µM),relative viability (Alpelisib + Linsitinib; first compound 0.4 µM),relative viability (Alpelisib + Linsitinib; first compound 1.265 µM),relative viability (Alpelisib + Linsitinib; first compound 4 µM),relative viability (OSI-027 + Bortezomib; first compound 0.01 µM),relative viability (OSI-027 + Bortezomib; first compound 0.03162 µM),relative viability (OSI-027 + Bortezomib; first compound 0.1 µM),relative viability (OSI-027 + Bortezomib; first compound 0.3162 µM),relative viability (OSI-027 + Bortezomib; first compound 1 µM),relative viability (Alpelisib + Palbociclib; first compound 0.04 µM),relative viability (Alpelisib + Palbociclib; first compound 0.1265 µM),relative viability (Alpelisib + Palbociclib; first compound 0.4 µM),relative viability (Alpelisib + Palbociclib; first compound 1.265 µM),relative viability (Alpelisib + Palbociclib; first compound 4 µM),relative viability (Alpelisib + Decitabine; first compound 0.1265 µM)
EMC-BAC-2,0.924,0.965,0.72,0.747,0.773,0.811,0.79,0.657,0.678,1.07,1.08,0.988,0.872,0.568,0.5,0.481,0.505,0.348,0.324,
NCI-H838,0.405,0.508,0.438,0.359,0.969,1.02,0.983,0.807,0.956,0.751,0.71,0.78,0.531,0.325,0.246,0.222,0.24,0.18,0.182,0.422
NCI-H1975,0.39,0.387,0.366,0.268,0.96,0.915,0.91,0.67,0.548,0.41,0.337,0.464,0.318,0.274,0.628,0.552,0.597,0.323,0.319,0.357
NCI-H1437,0.562,0.609,0.527,0.527,1.06,1.02,1.05,0.827,0.844,0.43,0.409,0.538,0.487,0.258,0.327,0.314,0.356,0.264,0.314,0.579
NCI-H1666,0.686,0.781,0.694,0.612,0.805,0.705,0.772,1.01,0.793,0.707,0.9,0.688,0.425,0.372,0.681,0.606,0.693,0.571,0.493,0.708
NCI-H647,0.423,0.537,0.306,0.35,1.01,1.29,1.13,1.12,1.12,0.992,0.981,1,0.884,0.432,0.322,0.447,0.421,0.289,0.275,0.497
NCI-H23,0.322,0.327,0.28,0.198,0.527,0.576,0.672,0.524,0.513,0.967,0.834,0.944,1.02,0.656,0.59,0.434,0.461,0.305,0.313,0.276
NCI-H1915,0.267,0.255,0.265,0.251,1.11,1.1,1.17,1.02,1.08,1.04,0.995,1.04,0.968,0.898,0.555,0.531,0.573,0.474,0.471,0.285
HOP-62,0.259,0.216,0.234,0.283,0.801,0.959,1.16,0.976,0.922,0.679,0.726,0.377,0.65,0.609,0.43,0.425,0.508,0.309,0.417,0.22
NCI-H520,0.422,0.481,0.442,0.412,1.01,1.04,1.01,1.02,0.723,0.62,0.394,0.459,0.179,0.225,0.241,0.235,0.195,0.19,0.189,0.531
COR-L23,0.423,0.438,0.333,0.355,0.836,0.889,0.856,0.69,0.592,1.16,0.923,1.07,1.13,0.298,0.271,0.241,0.253,0.215,0.212,0.427
H3255,0.632,0.65,0.448,0.467,0.979,1.01,1.07,0.715,0.794,0.825,0.761,0.619,0.545,0.534,0.333,0.321,0.333,0.296,0.264,0.603
NCI-H1993,0.547,0.592,0.494,0.671,0.732,0.737,0.762,0.702,0.749,1.11,0.898,0.788,0.625,0.542,0.549,0.637,0.647,0.501,0.465,0.561
NCI-H1792,0.444,0.581,0.443,0.401,0.505,0.566,0.619,0.539,0.38,1.03,0.688,0.858,0.899,0.212,0.631,0.62,0.658,0.508,0.321,0.368
SW 1573,0.489,0.626,0.365,0.359,0.919,0.826,0.725,0.685,0.547,1.18,0.897,0.831,0.776,0.732,0.409,0.401,0.366,0.201,0.284,0.453
NCI-H2085,0.601,0.538,0.574,0.467,0.874,0.905,0.852,0.731,0.853,1.11,0.965,0.95,0.977,0.853,0.464,0.484,0.455,0.447,0.446,0.524
EPLC-272H,0.337,0.388,0.297,0.284,1.1,0.977,1.34,0.937,0.893,0.871,0.978,0.764,0.849,0.688,0.289,0.333,0.324,0.291,0.267,0.374
HARA,0.387,0.514,0.377,0.432,0.885,0.947,1.08,0.719,0.358,1.12,1.1,1.15,0.979,0.67,0.295,0.25,0.257,0.172,0.156,0.556
LU99A,0.822,0.899,0.666,0.579,0.501,0.477,0.548,0.427,0.311,1.11,0.967,0.981,0.604,0.252,0.374,0.379,0.363,0.259,0.22,0.838
NCI-H2087,0.311,0.325,0.26,0.135,0.853,0.979,1.05,0.803,1.07,0.82,0.879,0.938,0.859,0.412,0.301,0.237,0.246,0.257,0.193,0.203
NCI-H1734,0.532,0.497,0.477,0.255,0.814,0.885,0.875,0.71,0.489,0.958,0.809,0.852,0.834,0.47,0.307,0.282,0.373,0.263,0.227,0.478
HCC-44,0.891,1.02,0.921,0.889,0.707,0.7,0.738,0.582,0.543,0.929,1,0.874,0.838,0.413,0.98,0.921,0.988,0.881,0.913,0.97
PC-3 [JPC-3],0.798,0.887,0.813,0.79,0.948,0.974,1.03,0.883,0.933,0.816,0.731,0.807,0.877,0.815,0.591,0.556,0.581,0.521,0.559,0.757
ABC-1,1.15,1.21,0.612,1.12,0.716,0.695,0.86,0.847,0.709,0.284,0.366,0.331,0.405,0.27,0.653,0.611,0.732,0.385,0.454,1
NCI-H1651,0.625,0.703,0.598,0.439,0.953,0.932,0.963,0.932,0.956,0.929,0.954,0.884,0.929,0.737,0.512,0.514,0.594,0.483,0.484,0.557
NCI-H460,0.496,0.436,0.442,0.291,0.716,0.722,0.516,0.261,0.284,1.41,1.14,0.862,0.94,0.139,0.338,0.155,0.166,0.0802,0.114,0.571
